In patent publication US20260027073A1, “USE OF SMALL-MOLECULE COMPOUND HAVING NAPHTHYLAMINE STRUCTURE” (HANGZHOU PHECDAMED CO., LTD., priority 2023, published 2026):

Legend:
[1] = tested on: middle artery occlusion model in rats; test: Stroke: middle cerebral artery occlusion (MCAO); assay type: in vivo, SD rats; conditions: for escape latency (water maze) / number of crossing over the platform (water maze) / apoptosis rate of hippocampal neurons (flow cytometry): 30 mg/kg oral gavage; for escape latency (water maze) / number of crossing over the platform (water maze): 8 weeks; for escape latency (water maze): FIG. 82; for number of crossing over the platform (water maze): FIG. 83; for apoptosis rate of hippocampal neurons (flow cytometry): FIG. 84
Text: 7-8 weeks-old SD male rats were selected and adaptively fed for one week to establish a middle artery occlusion model in rats. After inducing anesthesia in rats using a small animal anesthesia machine, the anesthesia was immediately switched to maintenance, the rats were fixed in the supine position on the operating table, the neck in the middle and the right side of the operative part were shaved, and an incision was made in the middle of the neck after disinfection with alcohol and iodine vapors, and the carotid artery was separated along the tissues under the microscope, to avoid damaging blood vessels and nerves and to reduce the amount of hemorrhage; the electrocoagulation pen was used to cut off small arteries in the paracarotid branch and ligate the external carotid artery, and an another loose knot was played for backup; arterial clips were used to clip the proximal end of internal carotid artery and common carotid artery; the external carotid artery was cut with surgical scissors in the […], the filament was inserted carefully, and the marking point reached the bifurcation of internal and external carotid arteries, which meant that the head of the filament has already reached the middle cerebral artery; the skin was sutured, the symptoms were observed when the animal waked up, and the neurological function was evaluated; the suture line was cut open two hours after the surgery, the filament was drawn out, and ligature the remnant of external carotid artery was ligated tightly. The skin was re-sutured and attention was paid to the postoperative care of the rats. After modeling, drug administration was started in groups, which were divided into three groups: model group (model, treated with 0.5% CMC-Na by oral gavage, n=8) TJ01-013 treatment group (TJ01-013, 30 mg/kg TJ01-013 by oral gavage, n=8), and I-14-1 treatment group (I-14-1, 30 mg/kg I-14-1 by oral gavage, n=8). 8). Another normal control group (Control, 0.5% CMC-Na treatment by oral gavage, n=8) was set up, with performing the corresponding surgical operation, but no carotid artery was ligated and no filament insertion was performed, and the normal control group was administered for a total of 8 weeks, and at the end of the administration, the cognitive function of the rats was examined by using the water maze.
The night before the experiment begins, clean the laboratory and the water maze, the old water in the water maze is drained, the animal excreta should be cleaned up, and the laboratory is ventilated and free of special odor. The water maze was filled with fresh water, and the height of the water surface should be about 2 cm higher than the platform, and the four groups of rats underwent the water maze acclimatization training for 5 days. The above training was divided into a 4-day localization navigation experiment and a 1-day spatial exploration experiment. The water maze device was a circular pool, which was divided into quadrants I, II, III and IV with four equidistant points on the wall, and a circular hidden platform was placed in the center of the fourth quadrant. References were around the pool and kept unchanged, the pool and the platform were black, and black ink was poured into the water and mixed thoroughly so that the rats could not see the circular platform. The temperature of the water was kept at 22˜24° C. and the light in the room was stabilized. For each group of rats, a water maze test was performed at the end of drug administration to examine the cognitive status of the experimental animals. […] The four groups of rats underwent this training for 4 days, four times a day, two times in the morning and two times in the afternoon. At the end of each day, the experimenter thoroughly cleaned the water maze apparatus to prevent the odor of the rats in the water maze from affecting the results of the second day of the experiment. […]

[2] = tested on: mice with renal ischemia-reperfusion; test: Unilateral renal ischemia-reperfusion acute kidney injury; assay type: in vivo, C57BL/6 mice
Experimental: 8-week-old C57BL/6 mice (weighing about 20-25 g) were injected intraperitoneally with 50 mg/kg sodium pentobarbital. After the mice were anesthetized, carried out preserved skin and placed on a thermostatic table, the skin and muscle of the right side were incised from the back and the right kidney was exposed, and the tissue around the pedicle of the kidney was stripped off with forceps to expose the blood vessels and the ureter. The arterial and venous blood vessels and the ureter were ligated with sutures. After removing the kidney, the muscle and skin were sutured with sutures and placed at 37° C. to wake it up, and after waking up, the mice were given […] of I-1. The experiments were divided into a sham group (exposing the right side of the kidney without removing it), a control group (giving solvent treatment by oral gavage), a 10 mg/kg group (10 mg/kg I-1 by oral gavage) and a 30 mg/kg group (30 mg/kg I-1 by oral gavage), with being administered once a day, and left kidney ischemia-reperfusion was performed on the sixth day, the specific plan was: mice were injected intraperitoneally with 50 mg/kg sodium pentobarbital, after anesthetizing, carried out preserved skin and placed on a thermostatic table, the skin and muscle of the left side were cut from the back and the left kidney was exposed, and the tissue around the pedicle of the kidney was stripped off with forceps to expose the blood vessels, and the arterial clip were used to tighten the blood vessel, after ischemia for 45 min, the arterial clip were released and the kidney tissue was returned to its place with a cotton swab, and finally the muscle and skin were sutured with a suture lines and the mice were placed at 37° C. to wake it up, and given another drug treatment after waking up. Blood was taken from the eyeball after 24 h of reperfusion, and the blood was centrifuged at 12000 g for 10 min at 4° C. after standing at room temperature for 45 min, and the supernatant (serum) was taken to detect the level of creatinine and urea nitrogen in the serum with a biochemical analyzer.
After blood extraction from the mouse eyeballs, cardiac perfusion was performed with PBS, after mice were anesthetized and fixed on a foam plate with a needle, the skin and ribs of the chest and abdomen were cut open to expose the heart, the injection needle was inserted into the left ventricle of mice and the pericardium was cut open at the same time, and the perfusion was performed with PBS at a speed of 7 rpm until the liver turned white and then the perfusion was stopped, the kidneys were taken out, and the renal peritoneum was removed, and the kidneys were put into 4% paraformaldehyde and fixed and immersed for 72 h. Subsequently, tissue embedding was carried out. Then tissue embedding, sectioning and HE staining were performed as follows:
Tissue was dewaxed after embedding and sectioning, and performed antigen repair, 5% goat serum sealing solution was added dropwise at 37° C. for 40 min, 50 μl of KIM-1 and caspase3 primary antibody (1:500) was added dropwise, overnight at 4° C.; after rewarming at 37° C. for 30 min, the tissue was washed by PBS four times, each time for 5 min. And then fluorescence secondary antibody was added dropwise for Ih, and the tissue was washed by PBS four times, each time for 5 min, finally, the tissue was stained by DAPI for 10 min, sealed with nail polish, and images were collected by cytation 3.

[3] = reperfusion 24 h, oral gavage 10 mg/kg and 30 mg/kg, FIG. 1

| Compound | escape latency (water maze) [1] | number of crossing over the platform (water maze) [1] | apoptosis rate of hippocampal neurons (flow cytometry) [1] | damage to renal tissues (HE staining) ([2]; FIG. 2) | KIM-1 level in renal tissue (immunostaining) ([2]; FIG. 3) | cleaved-caspase3 level in renal tissue (immunostaining) ([2]; FIG. 3) | serum creatinine level [2, 3] | serum urea nitrogen level [2, 3] | therapeutic effect of TJ01-013 compared with I-14-1 ([1]; per readout of the block) | treatment of renal ischemia-reperfusion injury compared with I-1 ([2]; UMI-77 group vs I-1) |
| --- | --- | --- | --- | --- | --- | --- | --- | --- | --- | --- |
| O=C(O)C[S+]([O-])c1cc(NS(=O)(=O)c2ccc(C(F)(F)F)cc2)c2ccccc2c1O (stereo not shown) [I-14-1] | shorten the escape latency | increased | significantly reduce | – | – | – | – | – | – | – |
| O=C(O)C[S+]([O-])c1cc(NS(=O)(=O)c2ccc(Br)cc2)c2ccccc2c1O (stereo not shown) [I-1] | shorten the escape latency | increased | significantly reduce | alleviated the damage to renal tissues | inhibited | inhibited | significantly reduced | significantly reduced | significantly better | – |
| O=C(O)CSc1cc(NS(=O)(=O)c2ccc(Br)cc2)c2ccccc2c1O [UMI-77, reference compound] | – | – | – | – | – | – | – | – | – | less effective |
